Reference: patent publication US20250171437A1 (Agios Pharmaceuticals,Inc., priority 2022, published 2025)

Molecular target: T1, human PAH with the R408W mutation (A375 R408W cells) (Homo sapiens, UniProt P00439, R408W)
T1 construct: expressed in transfected cells
T1 sequence (P00439 1-452 R408W): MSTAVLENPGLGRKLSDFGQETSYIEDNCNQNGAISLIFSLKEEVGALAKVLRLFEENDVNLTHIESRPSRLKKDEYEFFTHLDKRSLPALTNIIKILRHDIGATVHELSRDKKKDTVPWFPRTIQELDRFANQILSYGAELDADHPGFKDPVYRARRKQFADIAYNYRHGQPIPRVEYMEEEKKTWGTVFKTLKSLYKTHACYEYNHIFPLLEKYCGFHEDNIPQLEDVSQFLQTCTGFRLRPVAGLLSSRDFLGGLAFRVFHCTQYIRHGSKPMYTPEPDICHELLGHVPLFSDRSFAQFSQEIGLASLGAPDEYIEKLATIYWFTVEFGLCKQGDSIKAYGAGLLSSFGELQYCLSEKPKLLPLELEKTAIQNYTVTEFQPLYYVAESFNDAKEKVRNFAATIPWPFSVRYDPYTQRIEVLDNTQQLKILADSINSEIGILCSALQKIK
Test: Cell Based Phenylalanine Flux Assay
Conditions: A375 R408W cells; 24 hrs with compound, then 20 μM sepiapterin and 800 μM 13C9,15N-Phenylalanine for 4 hours; 13C-Tyrosine by LC-MS; average where tested multiple times
In short: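 A375 cells stably expressing human PAH R408W treated 24 h at 37° C with a 10-point 2-fold dose curve in duplicate, 0.5% DMSO. Then 20 μM sepiapterin and 800 μM 13C9,15N-Phe added for 4 h; 13C-Tyr in media measured by LC-MS to give AC50.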

Row | AC50 [nM] | Compound
1 | ≤ 500 | O=C(c1nnc(-c2cc(C(F)(F)F)ccn2)o1)N1CCc2[nH]cnc2[C@H]1c1nc2cc(F)ccc2o1 [Example 122, [(4S)-4-(5-fluoro-1,3-benzoxazol-2-yl)-1,4,6,7-tetrahydroimidazo[4,5-c]pyridin-5-yl]-[5-[4-(trifluoromethyl)-2-pyridyl]-1,3,4-oxadiazol-2-yl]methanone]
2 | 1000 to 5000 | CC(C)(O)c1nc(Br)c(C(=O)N2CCc3[nH]cnc3[C@@H]2c2nc3cc(F)ccc3o2)o1 [Example 123, (R)-(4-bromo-2-(2-hydroxypropan-2-yl)oxazol-5-yl)(4-(5-fluorobenzo[d]oxazol-2-yl)-6,7-dihydro-1H-imidazo[4,5-c]pyridin-5(4H)-yl)methanone]
3 | 500 to 1000 | CC(C)(O)c1nc(Br)c(C(=O)N2CCc3[nH]cnc3[C@H]2c2nc3cc(F)ccc3o2)o1 [Example 124, (S)-(4-bromo-2-(2-hydroxypropan-2-yl)oxazol-5-yl)(4-(5-fluorobenzo[d]oxazol-2-yl)-6,7-dihydro-1H-imidazo[4,5-c]pyridin-5(4H)-yl)methanone]
4 | 1000 to 5000 | Cc1ccc(-c2nnc(C(=O)N3CCc4[nH]cnc4[C@@H]3c3nc4cc(F)ccc4o3)o2)nc1 [Example 125, (R)-(4-(5-fluorobenzo[d]oxazol-2-yl)-6,7-dihydro-1H-imidazo[4,5-c]pyridin-5(4H)-yl)(5-(5-methylpyridin-2-yl)-1,3,4-oxadiazol-2-yl)methanone]
5 | 500 to 1000 | Cc1ccc(-c2nnc(C(=O)N3CCc4[nH]cnc4[C@H]3c3nc4cc(F)ccc4o3)o2)nc1 [Example 126, (S)-(4-(5-fluorobenzo[d]oxazol-2-yl)-6,7-dihydro-1H-imidazo[4,5-c]pyridin-5(4H)-yl)(5-(5-methylpyridin-2-yl)-1,3,4-oxadiazol-2-yl)methanone]
6 | 500 to 1000 | Cn1nc(Cl)cc1C(=O)N1CCc2[nH]cnc2[C@H]1c1nc2cc(F)ccc2o1 [Example 127, (S)-(3-chloro-1-methyl-1H-pyrazol-5-yl)(4-(5-fluorobenzo[d]oxazol-2-yl)-6,7-dihydro-1H-imidazo[4,5-c]pyridin-5(4H)-yl)methanone]
7 | 1000 to 5000 | Cn1nc(Cl)cc1C(=O)N1CCc2[nH]cnc2[C@@H]1c1nc2cc(F)ccc2o1 [Example 128, (R)-(3-chloro-1-methyl-1H-pyrazol-5-yl)(4-(5-fluorobenzo[d]oxazol-2-yl)-6,7-dihydro-1H-imidazo[4,5-c]pyridin-5(4H)-yl)methanone]
8 | 500 to 1000 | CC(C)(O)c1nc(Cl)c(C(=O)N2CCc3[nH]cnc3[C@H]2c2nc3cc(F)ccc3o2)o1 [Example 129, (S)-(4-chloro-2-(2-hydroxypropan-2-yl)oxazol-5-yl)(4-(5-fluorobenzo[d]oxazol-2-yl)-6,7-dihydro-1H-imidazo[4,5-c]pyridin-5(4H)-yl)methanone]
9 | ≥ 5000 | CC(C)(O)c1nc(Cl)c(C(=O)N2CCc3[nH]cnc3[C@@H]2c2nc3cc(F)ccc3o2)o1 [Example 130, (R)-(4-chloro-2-(2-hydroxypropan-2-yl)oxazol-5-yl)(4-(5-fluorobenzo[d]oxazol-2-yl)-6,7-dihydro-1H-imidazo[4,5-c]pyridin-5(4H)-yl)methanone]
10 | 500 to 1000 | Cn1nccc1-c1nnc(C(=O)N2CCc3[nH]cnc3[C@H]2c2nc3cc(F)ccc3o2)o1 [Example 131, (S)-(4-(5-fluorobenzo[d]oxazol-2-yl)-6,7-dihydro-1H-imidazo[4,5-c]pyridin-5(4H)-yl)(5-(1-methyl-1H-pyrazol-5-yl)-1,3,4-oxadiazol-2-yl)methanone]
11 | 1000 to 5000 | Cn1nccc1-c1nnc(C(=O)N2CCc3[nH]cnc3[C@@H]2c2nc3cc(F)ccc3o2)o1 [Example 132, (R)-(4-(5-fluorobenzo[d]oxazol-2-yl)-6,7-dihydro-1H-imidazo[4,5-c]pyridin-5(4H)-yl)(5-(1-methyl-1H-pyrazol-5-yl)-1,3,4-oxadiazol-2-yl)methanone]
12 | 500 to 1000 | O=C(c1cnn2cc(N3CCN(C4CC4)CC3)ccc12)N1CCc2[nH]cnc2[C@H]1c1nc2cc(F)ccc2o1 [Example 133, (S)-(6-(4-cyclopropylpiperazin-1-yl)pyrazolo[1,5-a]pyridin-3-yl)(4-(5-fluorobenzo[d]oxazol-2-yl)-6,7-dihydro-1H-imidazo[4,5-c]pyridin-5(4H)-yl)methanone]
13 | ≥ 5000 | O=C(c1cnn2cc(N3CCN(C4CC4)CC3)ccc12)N1CCc2[nH]cnc2[C@@H]1c1nc2cc(F)ccc2o1 [Example 134, (R)-(6-(4-cyclopropylpiperazin-1-yl)pyrazolo[1,5-a]pyridin-3-yl)(4-(5-fluorobenzo[d]oxazol-2-yl)-6,7-dihydro-1H-imidazo[4,5-c]pyridin-5(4H)-yl)methanone]
14 | 1000 to 5000 | Cc1nc([C@@H](C)O)oc1C(=O)N1CCc2[nH]cnc2[C@H]1c1nc2cc(F)ccc2o1 [Example 135, ((S)-4-(5-fluorobenzo[d]oxazol-2-yl)-6,7-dihydro-1H-imidazo[4,5-c]pyridin-5(4H)-yl)(2-((R)-1-hydroxyethyl)-4-methyloxazol-5-yl)methanone]
15 | ≥ 5000 | Cc1nc([C@@H](C)O)oc1C(=O)N1CCc2[nH]cnc2[C@@H]1c1nc2cc(F)ccc2o1 [Example 136, ((R)-4-(5-fluorobenzo[d]oxazol-2-yl)-6,7-dihydro-1H-imidazo[4,5-c]pyridin-5(4H)-yl)(2-((R)-1-hydroxyethyl)-4-methyloxazol-5-yl)methanone]
16 | ≤ 500 | Cc1ccc2oc([C@@H]3c4nc[nH]c4CCN3C(=O)c3ocnc3C(F)F)nc2c1 [Example 137, (S)-(4-(difluoromethyl)oxazol-5-yl)(4-(5-methylbenzo[d]oxazol-2-yl)-6,7-dihydro-1H-imidazo[4,5-c]pyridin-5(4H)-yl)methanone]
17 | ≤ 500 | Cc1ccc2oc([C@H]3c4nc[nH]c4CCN3C(=O)c3ocnc3C(F)F)nc2c1 [Example 138, (R)-(4-(difluoromethyl)oxazol-5-yl)(4-(5-methylbenzo[d]oxazol-2-yl)-6,7-dihydro-1H-imidazo[4,5-c]pyridin-5(4H)-yl)methanone]
18 | 500 to 1000 | CN1CCN(c2ccc3c(C(=O)N4CCc5[nH]cnc5[C@H]4c4nc5cc(F)ccc5o4)cnn3c2)CC1(C)C [Example 139, (S)-(4-(5-fluorobenzo[d]oxazol-2-yl)-6,7-dihydro-1H-imidazo[4,5-c]pyridin-5(4H)-yl)(6-(3,3,4-trimethylpiperazin-1-yl)pyrazolo[1,5-a]pyridin-3-yl)methanone]
19 | ≥ 5000 | CN1CCN(c2ccc3c(C(=O)N4CCc5[nH]cnc5[C@@H]4c4nc5cc(F)ccc5o4)cnn3c2)CC1(C)C [Example 140, (R)-(4-(5-fluorobenzo[d]oxazol-2-yl)-6,7-dihydro-1H-imidazo[4,5-c]pyridin-5(4H)-yl)(6-(3,3,4-trimethylpiperazin-1-yl)pyrazolo[1,5-a]pyridin-3-yl)methanone]
20 | 500 to 1000 | O=C(c1oc(C2(O)CC2)nc1C(F)F)N1CCc2[nH]cnc2[C@H]1c1nc2cc(F)ccc2o1 [Example 141, (S)-(4-(difluoromethyl)-2-(1-hydroxycyclopropyl)oxazol-5-yl)(4-(5-fluorobenzo[d]oxazol-2-yl)-6,7-dihydro-1H-imidazo[4,5-c]pyridin-5(4H)-yl)methanone]
21 | 1000 to 5000 | O=C(c1oc(C2(O)CC2)nc1C(F)F)N1CCc2[nH]cnc2[C@@H]1c1nc2cc(F)ccc2o1 [Example 142, (R)-(4-(difluoromethyl)-2-(1-hydroxycyclopropyl)oxazol-5-yl)(4-(5-fluorobenzo[d]oxazol-2-yl)-6,7-dihydro-1H-imidazo[4,5-c]pyridin-5(4H)-yl)methanone]
22 | ≤ 500 | O=C(c1ocnc1C(F)(F)F)N1CCc2[nH]cnc2[C@H]1c1nc2ccc(Br)cc2o1 [Example 143, (S)-(4-(6-bromobenzo[d]oxazol-2-yl)-6,7-dihydro-1H-imidazo[4,5-c]pyridin-5(4H)-yl)(4-(trifluoromethyl)oxazol-5-yl)methanone]
23 | ≤ 500 | O=C(c1ocnc1C(F)(F)F)N1CCc2[nH]cnc2[C@@H]1c1nc2ccc(Br)cc2o1 [Example 144, (R)-(4-(6-bromobenzo[d]oxazol-2-yl)-6,7-dihydro-1H-imidazo[4,5-c]pyridin-5(4H)-yl)(4-(trifluoromethyl)oxazol-5-yl)methanone]
24 | ≤ 500 | O=C(c1ocnc1C(F)F)N1CCc2[nH]cnc2[C@H]1c1nc2ccc(Br)cc2o1 [Example 145, (S)-(4-(6-bromobenzo[d]oxazol-2-yl)-6,7-dihydro-1H-imidazo[4,5-c]pyridin-5(4H)-yl)(4-(difluoromethyl)oxazol-5-yl)methanone]
25 | 500 to 1000 | O=C(c1ocnc1C(F)F)N1CCc2[nH]cnc2[C@@H]1c1nc2ccc(Br)cc2o1 [Example 146, (R)-(4-(6-bromobenzo[d]oxazol-2-yl)-6,7-dihydro-1H-imidazo[4,5-c]pyridin-5(4H)-yl)(4-(difluoromethyl)oxazol-5-yl)methanone]
26 | ≤ 500 | O=C(c1ocnc1C(F)(F)F)N1CCc2[nH]cnc2[C@H]1c1nc2cc(Br)ccc2o1 [Example 147, (S)-(4-(5-bromobenzo[d]oxazol-2-yl)-6,7-dihydro-1H-imidazo[4,5-c]pyridin-5(4H)-yl)(4-(trifluoromethyl)oxazol-5-yl)methanone]
